Some results are limits rather than exact numbers.

We go through 27 compounds from patent US9376429B2, “Sodium channel blockers, preparation method thereof and use thereof” (Daewoong Pharmaceutical Co., Ltd., priority 2012, dated 2016).

The target of the assay is T1, sodium ion channel (Nav1.7) (Homo sapiens, UniProt Q15858).
T1 construct: host or cells: HEK293
T1 sequence (Q15858 whole entry): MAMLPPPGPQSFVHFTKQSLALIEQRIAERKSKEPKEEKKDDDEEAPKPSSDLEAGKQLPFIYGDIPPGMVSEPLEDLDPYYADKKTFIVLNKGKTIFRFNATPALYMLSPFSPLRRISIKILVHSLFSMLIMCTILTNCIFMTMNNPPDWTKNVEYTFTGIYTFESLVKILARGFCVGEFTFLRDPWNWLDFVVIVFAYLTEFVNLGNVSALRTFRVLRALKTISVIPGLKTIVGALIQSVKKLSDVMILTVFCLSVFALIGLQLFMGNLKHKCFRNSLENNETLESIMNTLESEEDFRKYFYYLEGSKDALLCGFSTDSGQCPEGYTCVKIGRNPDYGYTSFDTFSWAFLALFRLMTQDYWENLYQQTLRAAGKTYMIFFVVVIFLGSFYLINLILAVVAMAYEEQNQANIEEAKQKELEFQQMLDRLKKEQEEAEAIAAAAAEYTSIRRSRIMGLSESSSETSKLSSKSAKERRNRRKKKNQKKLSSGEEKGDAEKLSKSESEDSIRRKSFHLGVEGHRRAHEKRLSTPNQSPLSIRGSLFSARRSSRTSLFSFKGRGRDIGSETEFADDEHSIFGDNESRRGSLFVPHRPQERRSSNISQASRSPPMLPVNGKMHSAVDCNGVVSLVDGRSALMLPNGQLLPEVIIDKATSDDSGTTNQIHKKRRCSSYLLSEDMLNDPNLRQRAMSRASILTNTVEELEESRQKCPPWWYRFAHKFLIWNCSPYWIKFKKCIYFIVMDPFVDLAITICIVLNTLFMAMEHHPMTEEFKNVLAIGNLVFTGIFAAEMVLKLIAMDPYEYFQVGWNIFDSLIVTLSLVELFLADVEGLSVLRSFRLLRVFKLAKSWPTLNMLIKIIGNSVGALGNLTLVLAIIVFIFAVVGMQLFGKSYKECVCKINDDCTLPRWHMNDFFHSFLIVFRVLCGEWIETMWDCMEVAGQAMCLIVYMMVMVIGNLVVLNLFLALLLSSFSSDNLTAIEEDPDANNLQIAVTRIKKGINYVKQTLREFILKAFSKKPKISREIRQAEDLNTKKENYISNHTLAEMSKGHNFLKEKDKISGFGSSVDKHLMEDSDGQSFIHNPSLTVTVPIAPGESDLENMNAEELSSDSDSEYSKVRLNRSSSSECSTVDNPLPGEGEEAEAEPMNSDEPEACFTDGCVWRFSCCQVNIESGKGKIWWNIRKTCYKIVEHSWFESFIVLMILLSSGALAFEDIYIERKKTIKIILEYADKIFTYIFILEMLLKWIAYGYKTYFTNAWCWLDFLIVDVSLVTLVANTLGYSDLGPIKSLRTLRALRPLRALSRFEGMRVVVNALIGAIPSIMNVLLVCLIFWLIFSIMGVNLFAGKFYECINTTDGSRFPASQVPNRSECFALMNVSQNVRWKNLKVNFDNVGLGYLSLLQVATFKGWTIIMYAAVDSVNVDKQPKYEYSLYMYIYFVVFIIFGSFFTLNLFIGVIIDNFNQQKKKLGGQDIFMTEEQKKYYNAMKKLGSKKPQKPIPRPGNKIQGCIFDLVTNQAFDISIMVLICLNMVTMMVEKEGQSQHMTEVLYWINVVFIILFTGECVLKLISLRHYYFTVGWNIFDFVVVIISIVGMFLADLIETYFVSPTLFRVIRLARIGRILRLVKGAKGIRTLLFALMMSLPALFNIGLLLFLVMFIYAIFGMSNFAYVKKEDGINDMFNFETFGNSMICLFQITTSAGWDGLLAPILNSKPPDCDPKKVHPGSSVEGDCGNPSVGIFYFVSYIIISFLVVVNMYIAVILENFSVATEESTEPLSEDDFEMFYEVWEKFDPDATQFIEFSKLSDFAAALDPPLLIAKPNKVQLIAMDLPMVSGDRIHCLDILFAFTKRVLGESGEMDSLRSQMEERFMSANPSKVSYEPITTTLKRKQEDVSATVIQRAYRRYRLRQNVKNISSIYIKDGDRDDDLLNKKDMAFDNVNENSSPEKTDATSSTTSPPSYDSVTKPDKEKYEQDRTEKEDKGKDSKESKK
As to the kind of experiment: Blocking effect against sodium ion channel (Nav1.7), IonFlux16 auto patch clamp, hNav1.7 HEK293 cells. It counts as cell-based. The note with it: peak current after 50 seconds treatment, eight concentrations. The procedure: In order to measure the activities of the inventive compounds as antagonists, an experiment on a blocking effect against the sodium ion channel (Nav1.7) was carried out as follows.
The hNav1.7 HEK293 cell line used was a cell line having a human sodium ion channel 1.7 gene (type IX voltage-gated sodium channel alpha subunit) in human embryonic kidney (HEK) 293 cells and was purchased from Millipore. The medium used was prepared by adding 1% 100×NEAA and 10% heat inactivated FBS to DMEM F-12 and adding 1% P/S as an antibiotic thereto. G-418 as a […] was added during subculture, and the hNav1.7 HEK293 cells were cultured to a confluence of about 80% in a T75 flask in a 5% CO2 incubator at 37° C. for 2 or 3 days and detached from the flask by treatment with 0.25% trypsin solution. Then, the cells were collected by centrifugation and used in the experiment.
The compounds prepared in the Examples of the present invention were dissolved in dimethyl sulfoxide (DMSO) and used in the experiment. 90 mM and 10 mM DMSO stock solutions were prepared from each of the compounds and diluted in an extracellular solution (4 mM KCl, 138 mM NaCl, 1 mM MgCl2, 1.8 mM CaCl2, 5.6 mM glucose, 10 mM HEPES, pH 7.45) at various concentrations so that the final concentration of each compound in DMSO was 0.3% or less.
To measure the sodium ion channel blocking effect, an IonFlux16 Auto patch clamp system (Fluxion, Inc.) and a plate for exclusive use were used. The cells were distributed in an extracellular solution (4 mM KCl, 138 mM NaCl, 1 mM MgCl2, 1.8 mM CaCl2, 5.6 mM glucose, 10 mM HEPES, pH 7.45), and then dispensed in the specified region of the plate, and each of the prepared compound samples was diluted at various concentrations, and then dispensed in the specified region of the plate.
Specifically, eight concentrations per compound were set, and percent inhibition was determined by calculating the percentage of inhibition of the peak current, generated after treating the cells with each concentration of the compound for 50 seconds, relative to the peak current generated before treatment with the compound, and the IC50 value was calculated using the Sigma plot program. In Table 2 below, the percent inhibition of Nav1.7 is rated as follows: […]
Turning to `O=S(=O)(Nc1cscn1)c1cc(Cl)c(Oc2cnc(-c3ccc(F)c(F)c3)cc2-c2cccnc2)cc1F` [Example 82, 5-chloro-4-((6′-(3,4-difluorophenyl)-[3,4′-bipyridin]-3′-yl)oxy)-2-fluoro-N-(thiazol-4-yl)benzenesulfonamide], the IC50 is over 100 nM.

`O=S(=O)(Nc1cscn1)c1cc(Cl)c(Oc2cnc(-c3cccc(F)c3)cc2-c2ccnc(N3CCCCC3)c2)cc1F` [Example 102, 5-chloro-2-fluoro-4-((6-(3-fluorophenyl)-2′-(piperidin-1-yl)-[4,4′-bipyridin]-3-yl)oxy)-N-(thiazol-4-yl)benzenesulfonamide]: the IC50 was over 100 nM.

As to `Cn1cc(-c2cc(-c3ccc(F)cc3F)ncc2Oc2cc(F)c(S(=O)(=O)Nc3cscn3)cc2Cl)cn1` [Example 66, 5-chloro-4-((6-(2,4-difluorophenyl)-4-(1-methyl-1H-pyrazol-4-yl)pyridin-3-yl)oxy)-2-fluoro-N-(thiazol-4-yl)benzenesulfonamide 2,2,2-trifluoroacetate], the IC50 is over 100 nM.

With `O=S(=O)(Nc1nccs1)c1ccc(C(O)c2cccnc2-c2ccoc2)c(F)c1` (stereo not drawn) [Example 155, 3-fluoro-4-((2-(furan-3-yl)pyridin-3-yl)(hydroxy)methyl)-N-(thiazol-2-yl)benzenesulfonamide], the IC50 is over 100 nM.

As for `N#Cc1cc(S(=O)(=O)Nc2nccs2)ccc1Oc1ccc(-c2ccc(F)nc2F)nc1-c1ccoc1` [Example 127, 3-cyano-4-((2′,6′-difluoro-6-(furan-3-yl)-[2,3′-bipyridin]-5-yl)oxy)-N-(thiazol-2-yl)benzenesulfonamide], the IC50 lay within 51 to 100 nM.

In the case of `O=S(=O)(Nc1cscn1)c1cc(F)c(Oc2cnc(-c3ccc(F)c(F)c3)cc2-c2cncnc2)cc1F` [Example 96, 4-((6-(3,4-difluorophenyl)-4-(pyrimidin-5-yl)pyridin-3-yl)oxy)-2,5-difluoro-N-(thiazol-4-yl)benzenesulfonamide], the IC50 is over 100 nM.

As to `Cn1nccc1-c1cc(-c2ccc(F)nc2)ncc1Oc1ccc(S(=O)(=O)Nc2nccs2)cc1C#N` [Example 19, 3-cyano-4-((6′-fluoro-4-(1-methyl-1H-pyrazol-5-yl)-[2,3′-bipyridin]-5-yl)oxy)-N-(thiazol-2-yl)benzenesulfonamide], the IC50 was over 100 nM.

Regarding `O=S(=O)(Nc1nccs1)c1ccc(C(O)c2ccc(-c3ccc(F)cc3)cc2-c2ccoc2)cc1` (stereo not drawn) [Example 154, 4-((4′-fluoro-3-(furan-3-yl)-[1,1′-biphenyl]-4-yl)(hydroxy)methyl)-N-(thiazol-2-yl)benzenesulfonamide], the IC50 was over 100 nM.

`O=S(=O)(Nc1cscn1)c1cc(F)c(Oc2cnc(-c3ccc(C(F)(F)F)c(F)c3)cc2-c2cncnc2)cc1F` [Example 97, 2,5-difluoro-4-((6-(3-fluoro-4-(trifluoromethyl)phenyl)-4-(pyrimidin-5-yl)pyridin-3-yl)oxy)-N-(thiazol-4-yl)benzenesulfonamide] came in with an IC50 of over 100 nM.

Compound `O=S(=O)(Nc1cscn1)c1cc(Cl)c(Oc2ccc(-c3ccc(F)cc3)nc2-c2ccoc2)cc1F` [Example 131, 5-chloro-2-fluoro-4-((6-(4-fluorophenyl)-2-(furan-3-yl)pyridin-3-yl)oxy)-N-(thiazol-4-yl)benzenesulfonamide] displayed an IC50 of 51 to 100 nM.

In the case of `Cn1nccc1-c1cc(-c2cccnc2)ncc1Oc1ccc(S(=O)(=O)Nc2nccs2)cc1F` [Example 21, 3-fluoro-4-((4-(1-methyl-1H-pyrazol-5-yl)-[2,3′-bipyridin]-5-yl)oxy)-N-(thiazol-2-yl)benzenesulfonamide], the IC50 is over 100 nM.

On to `N#Cc1cc(S(=O)(=O)Nc2nccs2)ccc1Oc1cnc(-c2ccsc2)cc1-c1ccoc1` [Example 20, 3-cyano-4-((4-(furan-3-yl)-6-(thiophen-3-yl)pyridin-3-yl)oxy)-N-(thiazol-2-yl)benzenesulfonamide], for which the IC50 was over 100 nM.

`N#Cc1cc(S(=O)(=O)Nc2nccs2)ccc1Oc1cnc(-c2cccc(C(F)(F)F)c2)cc1-c1ccoc1` [Example 8, 3-cyano-4-(4-(furan-3-yl)-6-(3-(trifluoromethyl)phenyl)pyridin-3-yloxy)-N-(thiazol-2-yl)benzenesulfonamide] registered an IC50 of over 100 nM.

`Cn1nccc1-c1nc(-c2ccccc2F)ccc1Oc1ccc(S(=O)(=O)Nc2nccs2)cc1C#N` [Example 118, 3-cyano-4-((6-(2-fluorophenyl)-2-(1-methyl-1H-pyrazol-5-yl)pyridin-3-yl)oxy)-N-(thiazol-2-yl)benzenesulfonamide] yielded a half-maximal inhibitory concentration (IC50) of over 100 nM.

With `O=S(=O)(Nc1nccs1)c1ccc(C(O)c2ccc(-c3ccoc3)cc2-c2ccoc2)cc1` (stereo not drawn) [Example 149, 4-((2,4-di(furan-3-yl)phenyl)(hydroxy)methyl)-N-(thiazol-2-yl)benzenesulfonamide], the IC50 is over 100 nM.

`Cn1cc(-c2cc(-c3ccc(F)cc3)ncc2Oc2cc(F)c(S(=O)(=O)Nc3cscn3)cc2Cl)cn1` [Example 65, 5-chloro-2-fluoro-4-((6-(4-fluorophenyl)-4-(1-methyl-1H-pyrazol-4-yl)pyridin-3-yl)oxy)-N-(thiazol-4-yl)benzenesulfonamide 2,2,2-trifluoroacetate] registered an IC50 of over 100 nM.

Take `Cn1nccc1-c1nc(-c2ccc(F)nc2F)ccc1Oc1ccc(S(=O)(=O)Nc2nccs2)cc1C#N` [Example 128, 3-cyano-4-((2′,6′-difluoro-6-(1-methyl-1H-pyrazol-5-yl)-[2,3′-bipyridin]-5-yl)oxy)-N-(thiazol-2-yl)benzenesulfonamide]: the IC50 is over 100 nM.

Take `O=S(=O)(Nc1cscn1)c1cc(Cl)c(Oc2cnc(-c3cccc(F)c3)cc2-c2cn(-c3cccnc3)cn2)cc1F` [Example 100, 5-chloro-2-fluoro-4-((6-(3-fluorophenyl)-4-(1-(pyridin-3-yl)-1H-imidazol-4-yl)pyridin-3-yl)oxy)-N-(thiazol-4-yl)benzenesulfonamide]: the IC50 was over 100 nM.

As for `N#Cc1cc(S(=O)(=O)Nc2nccs2)ccc1Oc1ccc(-c2cncnc2)nc1-c1ccoc1` [Example 106, 3-cyano-4-((2-(furan-3-yl)-6-(pyrimidin-5-yl)pyridin-3-yl)oxy)-N-(thiazol-2-yl)benzenesulfonamide], the IC50 was over 100 nM.

`N#Cc1cc(S(=O)(=O)Nc2nccs2)ccc1Oc1cnc(-c2ccccc2)cc1-c1ccncc1Cl` [Example 35, 4-((3′-chloro-6-phenyl-[4,4′-bipyridin]-3-yl)oxy)-3-cyano-N-(thiazol-2-yl)benzenesulfonamide] gave an IC50 of over 100 nM.

Compound `N#Cc1cc(S(=O)(=O)Nc2nccs2)ccc1Oc1ccc(-c2ccc(F)cc2)nc1-c1ccoc1` [Example 109, 3-cyano-4-((6-(4-fluorophenyl)-2-(furan-3-yl)pyridin-3-yl)oxy)-N-(thiazol-2-yl)benzenesulfonamide] gave an IC50 of under 50 nM.

Compound `O=S(=O)(Nc1cscn1)c1cc(Cl)c(Oc2cnc(-c3ccc(F)cc3)cc2-c2ccoc2)cc1F` [Example 61, 5-chloro-2-fluoro-4-((6-(4-fluorophenyl)-4-(furan-3-yl)pyridin-3-yl)oxy)-N-(thiazol-4-yl)benzenesulfonamide] came in with a half-inhibitory concentration (IC50) of over 100 nM.

`O=S(=O)(Nc1nccs1)c1ccc(C(O)c2ccc(Cl)cc2-c2cn[nH]c2)c(F)c1` (stereo not drawn) [Example 139, 4-((4-chloro-2-(1H-pyrazol-4-yl)phenyl)(hydroxy)methyl)-3-fluoro-N-(thiazol-2-yl)benzenesulfonamide] returned an IC50 of over 100 nM.

With `N#Cc1cc(S(=O)(=O)Nc2cscn2)ccc1Oc1cnc(-c2cccc(F)c2)cc1-c1cccnc1` [Example 84, 3-cyano-4-((6′-(3-fluorophenyl)-[3,4′-bipyridin]-3′-yl)oxy)-N-(thiazol-4-yl)benzenesulfonamide], the IC50 was over 100 nM.

`N#Cc1cc(S(=O)(=O)Nc2cscn2)ccc1Oc1cnc(-c2cccc(F)c2)cc1-c1cncnc1` [Example 92, 3-cyano-4-((6-(3-fluorophenyl)-4-(pyrimidin-5-yl)pyridin-3-yl)oxy)-N-(thiazol-4-yl)benzenesulfonamide] came in with an IC50 of over 100 nM.

With `O=S(=O)(Nc1cscn1)c1cc(Cl)c(Oc2ccc(-c3ccc(F)nc3)nc2-c2ccoc2)cc1F` [Example 130, 5-chloro-2-fluoro-4-((6′-fluoro-6-(furan-3-yl)-[2,3′-bipyridin]-5-yl)oxy)-N-(thiazol-4-yl)benzenesulfonamide], the IC50 was over 100 nM.

Compound `O=S(=O)(Nc1cscn1)c1cc(Cl)c(Oc2cnc(-c3ccccc3F)cc2-c2ccoc2)cc1F` [Example 60, 5-chloro-2-fluoro-4-((6-(2-fluorophenyl)-4-(furan-3-yl)pyridin-3-yl)oxy)-N-(thiazol-4-yl)benzenesulfonamide] had an IC50 of over 100 nM.
